Consider four molecules from ChEMBL document CHEMBL4017516, “Sulfonium as a Surrogate for Ammonium: A New α7 Nicotinic Acetylcholine Receptor Partial Agonist with Desensitizing Activity” (J Med Chem, 2017).

SMILES strings stand for the structures. The source made the active and inactive calls. The rule behind the calls is not given here. Bounds are passed on as bounds.

Series [1] has as its target T1, Neuronal acetylcholine receptor subunit alpha-7 (Homo sapiens, UniProt P36544). Put plainly: Silent agonist activity at human alpha7 nAChR expressed in Xenopus laevis oocytes assessed as induction of PNU-120596-stimulated peak current response at 30 uM administered for 12 secs followed by washout period for 181 secs by voltage clamp technique relative to acetylcholine. Type of series: cell-based.

The target in series [2] is T1, Neuronal acetylcholine receptor subunit alpha-7. The series is described as follows: Partial agonist activity at human alpha7 nAChR expressed in Xenopus laevis oocytes assessed as induction of maximum current response at 100 uM administered for 12 secs followed by washout period for 181 secs by voltage clamp technique relative to acetylcholine. Type of series: cell-based.

Series [3] shares this target. Put plainly: Silent agonist activity at human alpha7 nAChR expressed in Xenopus laevis oocytes assessed as induction of PNU-120596-stimulated peak current response at 10 uM administered for 12 secs followed by washout period for 181 secs by voltage clamp technique relative to acetylcholine. The class given is cell-based.
Series [4] shares this target. The series is described as follows: Silent agonist activity at human alpha7 nAChR expressed in Xenopus laevis oocytes assessed as induction of PNU-120596-stimulated peak current response at 100 uM administered for 12 secs followed by washout period for 181 secs by voltage clamp technique relative to acetylcholine. Type of series: cell-based.
Series [5] shares this target. Put plainly: Antagonist activity at human alpha7 nAChR expressed in Xenopus laevis oocytes assessed as inhibition of acetylcholine-induced current response administered for 12 secs followed by washout period for 181 secs by voltage clamp technique. Type of series: cell-based.
For series [6] the target is unchanged. The series is described as follows: Partial agonist activity at human alpha7 nAChR expressed in Xenopus laevis oocytes assessed as induction of maximum current response at 10 to 300 uM administered for 12 secs followed by washout period for 181 secs by voltage clamp technique. Type of series: cell-based.
The target is the same in series [7]. The series is described as follows: Antagonist activity at human alpha7 nAChR expressed in Xenopus laevis oocytes assessed as inhibition of acetylcholine-induced current response at 300 uM administered for 12 secs followed by washout period for 181 secs by voltage clamp technique relative to acetylcholine. Type of series: cell-based.
Series [8] addresses T2, Neuronal acetylcholine receptor; alpha3/beta2 (Homo sapiens) (UniProt P17787+P32297). The series is described as follows: Agonist activity at human […] alpha3beta2 nAChR expressed in Xenopus laevis oocytes assessed as induction of current response at 30 uM administered for 6 secs followed by washout period for 241 secs by in presence of acetylcholine voltage clamp technique. The class given is cell-based.

Series [9] deals with T2, Neuronal acetylcholine receptor; alpha3/beta2 (Homo sapiens). Put plainly: Agonist activity at human ganglionic alpha3beta2 nAChR expressed in Xenopus laevis oocytes assessed as induction of current response at 30 uM administered for 6 secs followed by washout period for 241 secs by in presence of acetylcholine voltage clamp technique. The class given is cell-based.
A short description of series [10]: Hydrolytic stability of compound in water at 8.4 mM up to 60 days by [1H]-NMR spectroscopy. Type of series: physicochemical. The settings on record: buffer, 1440 h, 8400 µM.
Series [11] has as its target T1, Neuronal acetylcholine receptor subunit alpha-7. Put plainly: Induction of human alpha7 nAChR desensitization expressed in Xenopus laevis oocytes at 100 uM pretreated for 30 secs followed by PNU-120596 administered for 10 secs by voltage clamp technique relative to acetylcholine. Type of series: cell-based.
The target of series [12] is T2, Neuronal acetylcholine receptor; alpha3/beta2 (Homo sapiens). Put plainly: Antagonist activity at human ganglionic alpha3beta2 nAChR expressed in Xenopus laevis oocytes assessed as inhibition of acetylcholine-induced current response at 100 uM administered for 6 secs followed by washout period for 241 secs by in presence of acetylcholine voltage clamp technique. The class given is cell-based.

Series [13] is described as follows: Hydrolytic stability of compound in Ringers-D2O buffer at 8.4 mM at pH 7.2 up to 60 days by [1H]-NMR spectroscopy. The settings on record: pH 7.2, 1440 h, 8400 µM. Type of series: physicochemical.
In series [14] the target is T1, Neuronal acetylcholine receptor subunit alpha-7. The series is described as follows: Partial agonist activity at human alpha7 nAChR expressed in Xenopus laevis oocytes assessed as induction of maximum current response administered for 12 secs followed by washout period for 181 secs by voltage clamp technique. Type of series: cell-based.
The target in series [15] is T3, Neuronal acetylcholine receptor; alpha4/beta2 (Homo sapiens, UniProt P17787+P43681). Put plainly: Agonist activity at human alpha4beta2 nAChR expressed in Xenopus laevis oocytes assessed as induction of current response administered for 6 secs followed by washout period for 241 secs by voltage clamp technique. The class given is cell-based.
Series [16] addresses T2, Neuronal acetylcholine receptor; alpha3/beta2 (Homo sapiens). The series is described as follows: Antagonist activity at human […] alpha3beta2 nAChR expressed in Xenopus laevis oocytes assessed as inhibition of acetylcholine-induced current response at 30 uM administered for 6 secs followed by washout period for 241 secs by in presence of acetylcholine voltage clamp technique. The class given is cell-based.

Series [17] addresses T3, Neuronal acetylcholine receptor; alpha4/beta2. Put plainly: Antagonist activity at human alpha4beta2 nAChR expressed in Xenopus laevis oocytes assessed as inhibition of acetylcholine-induced current response administered for 6 secs followed by washout period for 241 secs by voltage clamp technique. The class given is cell-based.

T1 sequence (P36544 whole entry): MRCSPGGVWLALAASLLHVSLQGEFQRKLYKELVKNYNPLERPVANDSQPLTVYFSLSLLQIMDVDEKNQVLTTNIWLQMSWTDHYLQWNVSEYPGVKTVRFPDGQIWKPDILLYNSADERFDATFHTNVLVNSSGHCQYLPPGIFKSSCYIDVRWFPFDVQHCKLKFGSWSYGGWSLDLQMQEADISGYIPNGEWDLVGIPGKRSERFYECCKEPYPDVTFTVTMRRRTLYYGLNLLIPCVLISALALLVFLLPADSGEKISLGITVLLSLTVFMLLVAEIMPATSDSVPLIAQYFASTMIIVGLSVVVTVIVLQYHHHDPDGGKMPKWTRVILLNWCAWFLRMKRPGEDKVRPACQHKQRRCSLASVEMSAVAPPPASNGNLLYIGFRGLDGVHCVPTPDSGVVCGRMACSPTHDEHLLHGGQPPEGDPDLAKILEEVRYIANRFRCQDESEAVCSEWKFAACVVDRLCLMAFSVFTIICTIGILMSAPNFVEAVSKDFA
T3 sequence (P17787 whole entry): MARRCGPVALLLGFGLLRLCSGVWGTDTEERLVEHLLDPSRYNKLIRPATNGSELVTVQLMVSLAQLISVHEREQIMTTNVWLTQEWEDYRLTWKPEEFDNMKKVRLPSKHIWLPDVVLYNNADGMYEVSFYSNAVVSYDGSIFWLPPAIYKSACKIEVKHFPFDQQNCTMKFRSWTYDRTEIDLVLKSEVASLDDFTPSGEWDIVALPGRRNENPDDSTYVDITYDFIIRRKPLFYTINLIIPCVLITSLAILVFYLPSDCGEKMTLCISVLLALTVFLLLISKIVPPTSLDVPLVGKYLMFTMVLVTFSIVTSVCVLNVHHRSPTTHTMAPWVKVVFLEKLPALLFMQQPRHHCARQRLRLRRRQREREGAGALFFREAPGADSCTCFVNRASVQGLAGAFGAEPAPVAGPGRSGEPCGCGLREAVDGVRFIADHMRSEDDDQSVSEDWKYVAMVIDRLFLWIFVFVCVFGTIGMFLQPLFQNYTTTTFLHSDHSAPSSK
T3 sequence (P43681 whole entry): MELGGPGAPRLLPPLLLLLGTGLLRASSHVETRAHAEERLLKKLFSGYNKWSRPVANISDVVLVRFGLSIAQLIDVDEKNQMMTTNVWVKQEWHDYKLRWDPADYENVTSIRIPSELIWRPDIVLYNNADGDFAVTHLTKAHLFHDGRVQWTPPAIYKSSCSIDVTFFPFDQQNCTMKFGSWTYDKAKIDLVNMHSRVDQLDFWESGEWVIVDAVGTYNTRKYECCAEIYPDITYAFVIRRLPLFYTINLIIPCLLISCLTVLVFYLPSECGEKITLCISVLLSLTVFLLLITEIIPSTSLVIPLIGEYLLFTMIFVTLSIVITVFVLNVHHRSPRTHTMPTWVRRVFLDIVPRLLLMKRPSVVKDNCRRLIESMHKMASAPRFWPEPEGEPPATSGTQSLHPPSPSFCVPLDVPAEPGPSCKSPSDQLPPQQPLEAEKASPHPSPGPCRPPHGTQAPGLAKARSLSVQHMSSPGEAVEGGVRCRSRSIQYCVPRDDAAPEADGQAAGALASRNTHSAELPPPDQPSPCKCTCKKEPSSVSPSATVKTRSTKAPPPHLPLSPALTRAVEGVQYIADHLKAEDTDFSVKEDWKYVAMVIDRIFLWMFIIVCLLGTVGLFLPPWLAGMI

In the case of `CC[N+]1(CC)CCN(c2ccccc2)CC1`, the result in [1], in series [3] and in series [4] was Active. For the same molecule, the fold change (FC) in [2] was 0.47. Also, the IC50 – broadly, the concentration that inhibits the measured activity by half – in series [5] amounted to 55 µM.

With `CCN1CCN(c2ccccc2)CC1`, the result in series [6], in series [1], in series [3] and in series [4] was inactive. Moreover, the fold change (FC) in series [2] is 0. Moreover, the inhibition (commonly the change of the read-out against control, counted positive when it falls) in [7] was under 20%.

With `CC[S+]1CCN(c2ccccc2)CC1.O=S(=O)([O-])C(F)(F)F`, the outcome in series [8], in series [9] and in series [15] was inactive. For the same molecule, the fold change (FC) was 3 in series [1], 0.07 in series [2], 5 in [3] and 25 in [4]. Also, the Stability entry in [10] and in series [13] was “Stable” in each case. Also, the result in series [11] was Active. The inhibition entry in [12] and in series [16] was “Active” in each case. In [14], the EC50 (usually the midpoint of the concentration-response curve) came out at 40 µM. Moreover, the IC50 was 73 µM in series [5] and 51 µM in [17].

As for `CC[N+]1(c2ccccc2)CCSCC1`, the outcome in series [1], in series [3], in series [14] and in [4] was inactive.
